Measured values as given in US12653191B2, “Active compound combinations” (Bayer Aktiengesellschaft, priority 2020, dated 2026).
Like-named read-outs stand apart in the source and are kept apart here.

Tests used:
Cercospora beticola [1] = test: in vitro-Test with fungal microorganisms, Method B (tables C11-C20); assay type: cell-based; settings: Cercospora beticola, read-out: Efficacy %
In short: (§1)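 Cpd in MeOH + alkylaryl-polyglycol-ether, solvent evaporated; liquid medium + fungal spores/mycelium added; OD600 read; 3–7 d, 20° C., 85% RH; growth inhibition by photometry, % efficacy vs untreated ctrl.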

[2] = tested on: Colletotrichum lindemuthianum; test: in vitro-Test with fungal microorganisms, Method A (tables D1-D8); assay type: cell-based; settings: Colletotrichum lindemuthianum, read-out: Efficacy %
In short: (§2)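 Broth microdilution-type growth test in potato dextrose medium with spores or mycelium of the fungus, compound pre-dried from methanol/emulsifier. Efficacy from 620 nm extinction after 3-5 days at 20° C, scaled 0% (untreated growth) to 100% (no growth).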

Botrytis cinerea = test: in vitro-Test with fungal microorganisms, Method A (tables B1-B14); assay type: cell-based; settings: Botrytis cinerea
In short: as §2

Cordana musae [3] = test: in vitro-Test with fungal microorganisms, Method B (tables E9-E16); assay type: cell-based; settings: Neocordana musae, single active, read-out: Efficacy
In short: as §1

Colletotrichum coccodes = test: in vitro-Test with fungal microorganisms, Method B (tables J1-J11); assay type: cell-based; settings: Colletotrichum coccodes, read-out: Efficacy %; for inhibition of growth at 5 ppm: single active compound at 5 ppm
In short: as §1

Fusarium culmorum [4] = test: in vitro-Test with fungal microorganisms, Method B (tables G5-G15); assay type: cell-based; settings: for inhibition of growth at 0.04 ppm / inhibition of growth at 0.2 ppm / inhibition of growth at 1 ppm / inhibition of growth at 5 ppm: Fusarium culmorum, read-out: Efficacy
In short: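 Efficacy scale: 0% means growth equal to the untreated control, 100% means none detected. Compounds are dried from methanol with emulsifier before adding inoculated growth medium; incubation at 20° C., 85% relative humidity for 3 to 7 days precedes photometric inhibition readout.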

Alternaria alternata = test: in vitro-Test with fungal microorganisms, Method B (tables A13-A22); assay type: cell-based
In short: as §1

Diaporthe citri [5] = test: in vitro-Test with fungal microorganisms, Method A (tables F1-F11); assay type: cell-based; settings: Diaporthe citri, read-out: Efficacy
In short: as §2

Parastagonospora nodorum = test: in vitro-Test with fungal microorganisms, Method B (tables H5-H8); assay type: cell-based; settings: Parastagonospora nodorum, read-out: Efficacy
Method: (§3) Example: In Vitro-Test with Fungal Microorganisms
(§4) Wells of 96-well microtiter plates are filled with 30 μl of a preparation of test compound or compound combination in methanol+emulsifier alkylaryl-polyglycol-ether. Thereafter, the solvent is evaporated in a hood. At the next step, 200 μl of liquid growth medium is given, that has been amended with an appropriate concentration of spores or mycelium suspension of the test fungus.
(§5) With the aid of a photometer, the extinction in all wells is measured at the wavelength of 600 nm.
(§6) The microtiter plates are incubated for 3 to 7 days at 20° C. and 85% relative humidity. After the incubation inhibition of growth is determined photometrically. Efficacy is calculated in relation to the untreated control, 0% efficacy means fungal growth as high as in untreated control while 100% efficacy means no fungal growth is measured.
(§7) The data in tables A1 to A12, B1 to B14, C1 to C10, D1 to D8, E1 to E8, F1 to F11, G1 to G4, H1 to H4 and I1 to I5 were collected according to Method A. The data in tables A13 to A22, B15 to B18, C11 to C20, E9 to E16, F12 to F15, G5 to G15, H5 to H8, I6 to I11 and J1 to J11 were collected according to Method B.

Alternaria alternate = test: in vitro-Test with fungal microorganisms, Method A (tables A1-A12); assay type: cell-based, Alternaria alternata; settings: Alternaria, applied alone, read-out: Efficacy %
In short: as §2

Cordana musae [6] = test: in vitro-Test with fungal microorganisms, Method A (tables E1-E8); assay type: cell-based; settings: Neocordana musae, read-out: Efficacy %
In short: as §2

[7] = tested on: Ustilago segetum var. avenae; test: in vitro-Test with fungal microorganisms, Method A (tables I1-I5); assay type: cell-based; settings: alone, 0.8 ppm; read-out: Efficacy %
In short: as §2

[8] = tested on: Ustilago segetum var. avenae; test: in vitro-Test with fungal microorganisms, Method B (tables I6-I11); assay type: cell-based; settings: read-out: Efficacy %
In short: as §1

Fusarium culmorum [9] = test: in vitro-Test with fungal microorganisms, Method A (tables G1-G4); assay type: cell-based; settings: Fusarium culmorum, alone, read-out: Efficacy
In short: as §2

Cercospora beticola [10] = test: in vitro-Test with fungal microorganisms, Method A (tables C1-C10); assay type: cell-based; settings: Cercospora beticola, read-out: Efficacy %
In short: as §2

Diaporthe citri [11] = test: in vitro-Test with fungal microorganisms, Method B (tables F12-F15); assay type: cell-based
Method: as §3, §4, §5, §6, §7

O=C1C2CC=CCC2C(=O)N1SC(Cl)(Cl)Cl (centres unmarked) [(5.003) captan, captan]
inhibition of growth at 0.04 ppm (Cercospora beticola [1]; single compound, 0.04 ppm): 0% | inhibition of growth at 0.4 ppm (Cercospora beticola [1]; single compound, 0.4 ppm): 0% | inhibition of growth at 5 ppm (Cercospora beticola [1]; single compound): 100% | inhibition of growth at 0.8 ppm ([2]; mixing partner alone, 0.8 ppm): 3% | inhibition of growth at 4 ppm ([2]; mixing partner alone, 4.0 ppm): 100% | inhibition of growth at 20 ppm ([2]; mixing partner alone, 20.0 ppm): 100% | inhibition of growth at 0.8 ppm ([2]; single active at 0.8 ppm): 0% | inhibition of growth at 4 ppm ([2]; single active at 4.0 ppm): 100% | inhibition of growth at 20 ppm ([2]; single active at 20.0 ppm): 100% | inhibition of growth at 0.8 ppm (Botrytis cinerea; read-out: Efficacy): 0% | inhibition of growth at 4 ppm (Botrytis cinerea; read-out: Efficacy): 0% | inhibition of growth at 20 ppm (Botrytis cinerea; read-out: Efficacy): 7% | inhibition of growth at 0.8 ppm (Botrytis cinerea; alone, read-out: Efficacy %): 0% | inhibition of growth at 20 ppm (Botrytis cinerea; alone, read-out: Efficacy %): 100% | inhibition of growth at 0.04 ppm (Cordana musae [3]): 0% | inhibition of growth at 1 ppm (Cordana musae [3]): 0% | inhibition of growth at 5 ppm (Cordana musae [3]): 100% | inhibition of growth at 0.2 ppm (Colletotrichum coccodes; 0.2 ppm): 0% | inhibition of growth at 0.04 ppm (Colletotrichum coccodes; single active compound at 0.04 ppm): 53% | inhibition of growth at 0.2 ppm (Colletotrichum coccodes; single active compound at 0.2 ppm): 0% | inhibition of growth at 1 ppm (Colletotrichum coccodes; single active compound at 1 ppm): 0% | inhibition of growth at 5 ppm (Colletotrichum coccodes): 100% | inhibition of growth at 0.04 ppm (Fusarium culmorum [4]; single active compound): 0% | inhibition of growth at 0.2 ppm (Fusarium culmorum [4]; single active compound): 16% | inhibition of growth at 1 ppm (Fusarium culmorum [4]; single active compound): 18% | inhibition of growth at 5 ppm (Fusarium culmorum [4]; single active compound, 5 ppm): 100% | inhibition of growth at 0.2 ppm (Alternaria alternata; Alternaria alternata, single compound, 0.2 ppm, read-out: Efficacy): 0% | inhibition of growth at 0.8 ppm (Diaporthe citri [5]; Table F10, 0.8 ppm alone): 18% | inhibition of growth at 4 ppm (Diaporthe citri [5]; Table F10, 4.0 ppm alone): 100% | inhibition of growth at 20 ppm (Diaporthe citri [5]; Table F10, 20.0 ppm alone): 100% | inhibition of growth at 0.8 ppm (Diaporthe citri [5]; applied alone, 0.8 ppm): 9% | inhibition of growth at 4 ppm (Diaporthe citri [5]; applied alone, 4.0 ppm): 99% | inhibition of growth at 0.8 ppm (Diaporthe citri [5]; single active, 0.8 ppm): 24% | inhibition of growth at 4 ppm (Diaporthe citri [5]; single active, 4.0 ppm): 88% | inhibition of growth at 0.04 ppm (Parastagonospora nodorum): 0% | inhibition of growth at 20 ppm (Alternaria alternate): 56% | inhibition of growth at 4 ppm (Cordana musae [6]; mixing partner alone): 0% | inhibition of growth at 4 ppm (Cordana musae [6]; single substance): 100% | inhibition of growth at 20 ppm (Cordana musae [6]; single substance, 20.0 ppm): 100% | inhibition of growth at 0.8 ppm [7]: 0% | inhibition of growth at 1 ppm ([8]; 1 ppm): 28% | inhibition of growth at 0.8 ppm (Fusarium culmorum [9]; 0.8 ppm): 0% | inhibition of growth at 4 ppm (Fusarium culmorum [9]; 4.0 ppm): 100% | inhibition of growth at 20 ppm (Fusarium culmorum [9]; 20.0 ppm): 100% | inhibition of growth at 0.8 ppm (Cercospora beticola [10]; 0.8 ppm alone): 0% | inhibition of growth at 0.8 ppm (Cercospora beticola [10]; 0.8 ppm): 0% | inhibition of growth at 4 ppm (Cercospora beticola [10]): 100% | inhibition of growth at 20 ppm (Cercospora beticola [10]): 100%

COc1cc(C)c(C(=O)c2c(OC)ccc(Br)c2C)c(OC)c1OC [(15.016) metrafenone, metrafenone]
inhibition of growth at 0.2 ppm (Cercospora beticola [1]): 0% | inhibition of growth at 1 ppm (Cercospora beticola [1]; 1 ppm): 0% | inhibition of growth at 5 ppm (Cercospora beticola [1]): 10% | inhibition of growth at 0.2 ppm (Cercospora beticola [1]; single compound): 0% | inhibition of growth at 5 ppm (Cercospora beticola [1]; single compound): 1% | inhibition of growth at 0.8 ppm ([2]; mixing partner alone, 0.8 ppm): 10% | inhibition of growth at 4 ppm ([2]; mixing partner alone, 4.0 ppm): 12% | inhibition of growth at 20 ppm ([2]; mixing partner alone, 20.0 ppm): 21% | inhibition of growth at 4 ppm (Botrytis cinerea; alone, read-out: Efficacy %): 0% | inhibition of growth at 20 ppm (Botrytis cinerea; alone, read-out: Efficacy %): 0% | inhibition of growth at 0.04 ppm (Cordana musae [3]): 0% | inhibition of growth at 0.2 ppm (Cordana musae [3]; 0.2 ppm): 0% | inhibition of growth at 1 ppm (Cordana musae [3]): 0% | inhibition of growth at 5 ppm (Cordana musae [3]): 11% | inhibition of growth at 5 ppm (Colletotrichum coccodes): 2% | Efficacy (Diaporthe citri [11]; Table F12, 1 ppm alone): 3% | Efficacy (Diaporthe citri [11]; Table F12, 5 ppm alone): 0% | Efficacy (Diaporthe citri [11]; Table F14, 0.04 ppm alone): 0% | Efficacy (Diaporthe citri [11]; Table F14, 0.2 ppm alone): 0% | Efficacy (Diaporthe citri [11]; Table F14, 1 ppm alone): 0% | Efficacy (Diaporthe citri [11]; Table F14, 5 ppm alone): 0% | inhibition of growth at 1 ppm (Fusarium culmorum [4]; alone): 4% | inhibition of growth at 0.04 ppm (Fusarium culmorum [4]; single active compound): 0% | inhibition of growth at 0.2 ppm (Fusarium culmorum [4]; single active compound): 0% | inhibition of growth at 1 ppm (Fusarium culmorum [4]; single active compound): 7% | inhibition of growth at 5 ppm (Fusarium culmorum [4]; single active compound, 5 ppm): 13% | Efficacy (Fusarium culmorum [4]; single active compound, 5 ppm): 13% | Efficacy (Alternaria alternata; 0.2 ppm): 3% | inhibition of growth at 0.2 ppm (Alternaria alternata; Alternaria alternata, 0.2 ppm, read-out: Efficacy): 3% | inhibition of growth at 1 ppm (Alternaria alternata; Alternaria alternata, read-out: Efficacy): 6% | inhibition of growth at 5 ppm (Alternaria alternata; Alternaria alternata, 5 ppm, read-out: Efficacy): 16% | inhibition of growth at 1 ppm (Alternaria alternata; Alternaria alternata, single compound, read-out: Efficacy): 0% | inhibition of growth at 0.8 ppm (Diaporthe citri [5]; Table F11, 0.8 ppm alone): 0% | inhibition of growth at 4 ppm (Diaporthe citri [5]; Table F11, 4.0 ppm alone): 0% | inhibition of growth at 20 ppm (Diaporthe citri [5]; Table F11, 20.0 ppm alone): 0% | inhibition of growth at 0.8 ppm (Diaporthe citri [5]; applied alone, 0.8 ppm): 0% | inhibition of growth at 4 ppm (Diaporthe citri [5]; applied alone, 4.0 ppm): 10% | inhibition of growth at 20 ppm (Diaporthe citri [5]; applied alone, 20.0 ppm): 0% | inhibition of growth at 0.04 ppm (Parastagonospora nodorum): 0% | inhibition of growth at 0.2 ppm (Parastagonospora nodorum; 0.2 ppm): 0% | inhibition of growth at 1 ppm (Parastagonospora nodorum; 1 ppm): 0% | inhibition of growth at 5 ppm (Parastagonospora nodorum; 5 ppm): 32% | inhibition of growth at 0.8 ppm (Alternaria alternate; 0.8 ppm): 0% | inhibition of growth at 4 ppm (Alternaria alternate; 4 ppm): 0% | inhibition of growth at 20 ppm (Alternaria alternate): 11% | inhibition of growth at 0.04 ppm ([8]; 0.04 ppm): 4% | inhibition of growth at 0.2 ppm ([8]; 0.2 ppm): 0% | inhibition of growth at 0.8 ppm (Cercospora beticola [10]; 0.8 ppm): 10% | inhibition of growth at 4 ppm (Cercospora beticola [10]): 0% | inhibition of growth at 20 ppm (Cercospora beticola [10]): 0%
